In brackets after ≈: the same amount, converted by molar mass. Square brackets hold non-standard residues; d marks the D form. Peptide text beside a SMILES is read from it.
Columns and labels:
[1] = XTT proliferation (cytotoxicity) assay, normal fibroblasts; type: cell-based, mouse; conditions: mouse, NIH-3T3 normal mouse fibroblasts; NIH3T3, pH 6, 24 h; read-out: Lethal Concentration (LC50)
Method: (§1) The CL1 human prostate carcinoma (PC) cell line is an androgen-independent (AI) subclone of LNCaP cell line, which was generated by culturing androgen-dependent (AD) LNCaP cells in charcoal-stripped, […], as described (Patel et al. 2000). 22RV1 human PC cells are AI sub-clones of the AD prostatic adenocarcinoma CWR22 xenograft (Sramkoski et al. 1999). CL1 and 22RV1 (ATCC, USA) were grown in RPMI-1640 supplemented with 10% FCS (Biological Industries, Beit Haemek, Israel). PC3 and DU145 are androgen-insensitive (AI) (non-responsive), invasive human prostate cancer cell lines. NIH-3T3 mouse fibroblast cell lines (ATCC, USA) were grown in DMEM supplemented with 10% BS. Murine Lewis lung carcinoma (LLC) cell lines were also grown in DMEM medium supplemented with 10% fetal calf serum and antibiotics under the same conditions as above.
(§2) The anticancer activity of the diastereomers 1, 5 and 11-16, 36-39, 42 and 44 was examined against human CL1 prostate cancer, murine LLC (Lewis lung carcinoma), DU 145 and PC3 cell lines. The cell selectivity of the diastereomeric peptides was also studied by examining their effect on NIH-3T3 normal mouse fibroblasts cell line.
(§3) A 96-well plate (Falcon) was used for the XTT proliferation assay. Cancer cells were grown for 24 hours (day 1) in RPMI-1640 medium ([…] cells/100 μl for LLC, CL1, 22RVI, DU 145 and PC3, respectively) supplemented with 10% fetal calf serum and antibiotics, at 37° C., in humidified atmosphere at 5% CO2 and 95% air, resulting in growth medium pH of 7.4. NIH-3T3 fibroblast cells (1×10^4 cells/100 μl) were grown in DMEM medium supplemented with 10% bovine calf serum and antibiotics under the same conditions as described above for the cancerous cells. Wells in the last two rows served as blanks (medium only, for measuring the background color of the medium) and 100% survival controls (cells and medium only without treatment), respectively.
(§4) In day 2, the peptides were dissolved in sterile PBS to a concentration of 200 μM (or 500 μM). The medium in the assay wells was replaced with 100 μl serum free medium. For the assays at pH 6, the medium was initially concentrated (×5 or ×10) and then diluted with double distilled water and addition of sodium carbonate. Before reaching the correct dilution, the medium was adjusted to pH 6 and then more water was added to reach the final dilution. The cells were grown in physiological pH, and the acidic pH was used only during the 24 hours incubation with the peptides. A sign for the correct acidity was a light yellow color of the medium. In line A of the plate, 160 μl of serum free medium was added, if the initial peptide concentration was 500 μM.
(§5) Peptide solutions, 100 μl (or 40 μl) were added to each assay well in line A, such that the final concentration of the peptide was […] and the volume 200 μl. The medium in the wells was mixed with multichannel pipette 5 times and 100 μl of it were transferred to the next row of wells (line B), to give a peptide concentration of 50 μM. The double dilution of the peptides continued downstream the plate in the same manner. The plates were then incubated for 24 h.
(§6) In day 3, XTT reaction solution was prepared by adding to 100 μl aliquots of activation solution (sodium 3′-[1-(phenyl-aminocarbonyl)-3,4-tetrazolium]-bis(4-methoxy-6-nitro) benzene sulfonic acid hydrate and N-methyl dibenzopyrazine methyl sulfate; mixed in a proportion of 50:1) (protected from light and kept in −20° C.), the substrate. 50 μl of XTT reaction solution were added to each well and the plates were incubated for 2 hours (37° C. and 5% CO2+95% air. In cases the incubation was not enough for the creation of the color, it was extended for up to 24 hours). The optical density was read at wavelength of 450 nm in an ELISA plate reader. Cell viability was determined relative to the control and final results were recorded. The results were confirmed using replications in at least three independent experiments. […]

[2] = system: NIH-3T3 normal mouse fibroblasts cell line; assay: as above; type: cell-based; conditions: NIH3T3, pH 7.4, 24 h
Method: as §1, §2, §3, §4, §5, §6

[3] = system: CL1 human prostate carcinoma cell line; assay: XTT proliferation (cytotoxicity) assay, CL1; type: cell-based
Method: as §1, §2, §3, §4, §5, §6

22RV1 human PC cells = assay: XTT proliferation (cytotoxicity) assay, 22RV1; type: cell-based
Method: as §1, §3, §4, §5
In day 3, XTT reaction solution was prepared by adding to 100 μl aliquots of activation solution (sodium 3′-[1-(phenyl-aminocarbonyl)-3,4-tetrazolium]-bis(4-methoxy-6-nitro) benzene sulfonic acid hydrate and N-methyl dibenzopyrazine methyl sulfate; mixed in a proportion of 50:1) (protected from light and kept in −20° C.), the substrate. 50 μl of XTT reaction solution were added to each well and the plates were incubated for 2 hours (37° C. and 5% CO2+95% air. In cases the incubation was not enough for the creation of the color, it was extended for up to 24 hours). The optical density was read at wavelength of 450 nm in an ELISA plate reader. Cell viability was determined relative to the control and final results were recorded. The results were confirmed using replications in at least three independent experiments. The LC50 for each peptide was obtained from the curve of cell viability versus concentration of peptide and taken from the concentration at which cell viability was 50%. The data shown in Table 1 are for only one experiment, but representative of all replications.

[4] = system: Murine Lewis lung carcinoma (LLC) cell line; assay: XTT proliferation (cytotoxicity) assay, LLC; type: cell-based
Method: as §1, §2, §3, §4, §5, §6

[5] = system: DU145 human prostate cancer cell line; assay: XTT proliferation (cytotoxicity) assay, DU145; type: cell-based
Method: as §1, §2, §3, §4, §5, §6

[6] = system: PC3 human prostate cancer cell line; assay: XTT proliferation (cytotoxicity) assay, PC3; type: cell-based; conditions: PC3, pH 7.4, 24 h
Method: as §1, §2
A 96-well plate (Falcon) was used for the XTT proliferation assay. Cancer cells were grown for 24 hours (day 1) in RPMI-1640 medium (5×10^3, 7×10^3, 1×10^4 and 7×10^3 cells/100 μl for LLC, CL1, 22RVI, DU 145 and PC3, respectively) supplemented with 10% fetal calf serum and antibiotics, at 37° C., in humidified atmosphere at 5% CO2 and 95% air, resulting in growth medium pH of 7.4. […]
In day 3, XTT reaction solution was prepared by adding to 100 μl aliquots of activation solution (sodium 3′-[1-(phenyl-aminocarbonyl)-3,4-tetrazolium]-bis(4-methoxy-6-nitro) benzene sulfonic acid hydrate and N-methyl dibenzopyrazine methyl sulfate; mixed in a proportion of 50:1) (protected from light and kept in −20° C.), the substrate. […] The optical density was read at wavelength of 450 nm in an ELISA plate reader. Cell viability was determined relative to the control and final results were recorded. […]

[7] = system: pepsin, trypsin, and elastase; assay: Resistance to proteolytic digestion (reverse-phase HPLC); type: in vitro ADME; conditions: after 2 hr, 140 μM peptide, 25 μM protease, 37° C.
Method: In order to reach their target, the diastereomers have to withstand proteolytic digestion of proteases, which may occur after their administration and during the time until they reach the target site. The susceptibility of the peptides 13 and 14 to proteolytic digestion by pepsin (from porcine stomach mucosa, Sigma), trypsin (from bovine pancreas, Sigma), and elastase (from human leukocytes, Sigma) was assessed by reverse-phase HPLC. As a negative control, the all L-amino acid analog peptides were used. Equal amounts of the peptides were dissolved in PBS (35 mM phosphate buffer/0.15 M NaCl, pH 7.3) at a final concentration of 140 μM, to which 25 μM of protease were added. […] After the addition of the appropriate protease inhibitor to stop the reaction, aliquots were injected to C18 column and the amounts of the intact peptides 13 and 14 and their all L analogs were evaluated using their absorbance at 215 nm.

CC(C)C[C@H](NC(=O)[C@H](CC(C)C)NC(=O)[C@@H](CCCCN)NC(=O)[C@H](CC(C)C)NC(=O)[C@H](CC(C)C)NC(=O)[C@H](Cc1c[nH]cn1)NC(=O)[C@@H](CCCCN)NC(=O)[C@@H](CC(C)C)NC(=O)[C@H](CC(C)C)NC(=O)[C@@H](CCCCN)NC(=O)[C@H](Cc1c[nH]cn1)NC(=O)[C@H](CC(C)C)NC(=O)[C@@H](CC(C)C)NC(=O)[C@H](Cc1c[nH]cn1)NC(=O)[C@@H](N)CC(C)C)C(N)=O [Peptide 14] (H-LH[dL]LH[dK]L[dL][dK]HLL[dK]LL-NH2)
CC50 at 24 h [1]: 25 µg/mL (≈ 13.7 µM) | Lethal Concentration (LC50) [2]: 100 µg/mL | Lethal Concentration (LC50) ([3]; CL1, pH 6, 24 h): 12.5 µg/mL | Lethal Concentration (LC50) ([3]; CL1, pH 7.4, 24 h): 12.5 µg/mL | activity compared with peptide 1 ([3]; CL1 and 22RVI, pH 7.4): half as active | active concentration lower than against NIH-3T3 ([3]; CL1 vs NIH-3T3, pH 7.4): 8 fold | active concentration lower than against NIH-3T3 ([3]; CL1 vs NIH-3T3 at the same pH): at least two-fold lower | Lethal Concentration (LC50) (22RV1 human PC cells; 22RV1, pH 6, 24 h): 12.5 µg/mL | Lethal Concentration (LC50) (22RV1 human PC cells; 22RV1, pH 7.4, 24 h): 25 µg/mL | Lethal Concentration (LC50) ([4]; pH 6, 24 h): 25 µg/mL | Lethal Concentration (LC50) ([4]; pH 7.4, 24 h): 50 µg/mL | Lethal Concentration (LC50) ([5]; DU145, pH 6, 24 h): 9.3 µg/mL | Lethal Concentration (LC50) ([5]; DU145, pH 7.4, 24 h): 12.5 µg/mL | Lethal Concentration (LC50) [6]: 18.7 µg/mL | proteases digestion [7]: ~50%
